This passage reports AC50 results from patent US20230104936A1, “TRPML MODULATORS” (Casma Therapeutics, Inc., priority 2019, published 2023).

Molecules are shown by their SMILES. Bounds are passed on as bounds.

The subject of the first test is TFEB. The experiment in a line: TFEB nuclear translocation assay, HeLa wt cells. Conditions: 2 hrs compound treatment, Table 1 does not say HeLa wt or TRPML1 KO. The format is cell-based. The essentials: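 TFEB translocation into the nucleus of HeLa wt cells is scored by high-content immunofluorescence after 2 hrs of compound treatment at 37° C, reported as AC50.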
In the case of `CC(c1cccc(F)c1N1CCCCC1)S(=O)(=O)c1ccc(S2(=O)=NCCC2)cc1` (single isomer, unassigned) [Compound A-992, 1-(4-((1-(3-fluoro-2-(piperidin-1-yl)phenyl)ethyl)sulfonyl)phenyl)-4,5-dihydro-3H-isothiazole 1-oxide], the AC50 (usually the concentration giving half of the maximal activity seen) is at least 10 µM.

Staying with this test, now noted: Homo sapiens, HeLa, 2 h, 2 hrs compound treatment, Table 1 does not say HeLa wt or TRPML1 KO.
Take `C[C@H]1COC[C@H](C)N1CC1CCN(c2c(F)cccc2NS(=O)(=O)c2ccc(S(=N)(=O)N(C)C)cc2)CC1` (single isomer, unassigned) [Compound A-834]: the AC50 was at most 2 µM.

Turning to `CN(C)S(=O)(=O)c1ccc(S(=O)(=O)Nc2cccc(F)c2N2CCC(N3CCC4(CCOC4)C3)CC2)cc1` (single isomer, unassigned) [Compound A-909, N1-(2-(4-(2-oxa-7-azaspiro[4.4]nonan-7-yl)piperidin-1-yl)-3-fluorophenyl)-N4,N4-dimethylbenzene-1,4-disulfonamide], the concentration at half-maximal activity (AC50) lay in the range of 2.01 to 8 µM.

Molecule `O=S(=O)(Nc1ccccc1N1CCC(c2ccc(Cl)cc2F)CC1)c1cccc(Cl)c1` [Compound A-77, 3-chloro-N-{2-[4-(4-chloro-2-fluorophenyl)piperidin-1-yl]phenyl}benzene-1-sulfonamide] had an AC50 of at most 2 µM.

`CC(C)(C)C(=O)N1CCN(c2ccccc2NS(=O)(=O)c2ccc(S(F)(F)(F)(F)F)cc2)CC1` [Compound A-575, N-{2-[4-(2,2-dimethylpropanoyl)piperazin-1-yl]phenyl}-4-(pentafluoro-λ^6-sulfanyl)benzene-1-sulfonamide] had a concentration at half-maximal activity (AC50) of 8.01 to 9.99 µM.

Molecule `COc1ccc(S(=O)(=O)Nc2ccccc2N2CCN(Cc3ccc(F)cc3F)CC2)cc1` [Compound A-194, N-(2-{4-[(2,4-difluorophenyl)methyl]piperazin-1-yl}phenyl)-4-methoxybenzene-1-sulfonamide] came in with a concentration at half-maximal activity (AC50) of at least 10 µM.

`CN(C)S(=O)(=O)c1ccc(S(=O)(=O)Nc2cc(Cl)ccc2N2CCOCC2)cc1` [Compound A-290, N4-[5-chloro-2-(morpholin-4-yl)phenyl]-N1,N1-dimethylbenzene-1,4-disulfonamide] came in with a half-maximal activity concentration (AC50) of at least 10 µM.

The molecule `O=S(=O)(Nc1cc(Cl)ccc1N1CC2(CCC2)OC2(CCC2)C1)c1ccc2c(c1)CCC2` [Compound A-396, N-(5-chloro-2-{5-oxa-11-azadispiro[3.1.3^6.3^4]dodecan-11-yl}phenyl)-2,3-dihydro-1H-indene-5-sulfonamide] returned an AC50 of at most 2 µM.

`CN(C)S(=O)(=O)c1ccc(S(=O)(=O)Nc2ccccc2N2CCC(c3ccc(-c4nnn[nH]4)cc3)CC2)cc1` [Compound A-273, N1,N1-dimethyl-N4-(2-{4-[4-(1H-1,2,3,4-tetrazol-5-yl)phenyl]piperidin-1-yl}phenyl)benzene-1,4-disulfonamide]: the AC50 was at least 10 µM.

In turn, `CS(=O)(=O)c1ccc(S(=O)(=O)Nc2ccccc2N2CCC(O)(c3ccc(F)cc3)CC2)cc1` [Compound A-203, N-{2-[4-(4-fluorophenyl)-4-hydroxypiperidin-1-yl]phenyl}-4-methanesulfonylbenzene-1-sulfonamide] came in with an AC50 of 2.01 to 8 µM.

In turn, `COc1ccc(S(=O)(=O)Nc2ccccc2N2CC(Cc3ccc(F)cc3F)C2)cc1` [Compound A-219, N-(2-{3-[(2,4-difluorophenyl)methyl]azetidin-1-yl}phenyl)-4-methoxybenzene-1-sulfonamide] had an AC50 of at least 10 µM.

`CN(C)C(=O)N1CCN(c2ccccc2NS(=O)(=O)c2ccc(S(=O)(=O)N(C)C)cc2)CC1` [Compound A-325, 4-{2-[4-(dimethylsulfamoyl)benzenesulfonamido]phenyl}-N,N-dimethylpiperazine-1-carboxamide]: the AC50 is at least 10 µM.

In turn, `COc1ccc(S(=O)(=O)Nc2ccccc2N2CC(Oc3ccc(F)cc3F)C2)cc1` [Compound A-200, N-{2-[3-(2,4-difluorophenoxy)azetidin-1-yl]phenyl}-4-methoxybenzene-1-sulfonamide] displayed an AC50 of 2.01 to 8 µM.

On to `CN(C)S(=O)(=O)c1ccc(S(=O)(=O)Nc2ccccc2N2CCN(C3CCCCC3(F)F)CC2)cc1` (stereo not shown) [Compound A-626, N4-{2-[4-(2,2-difluorocyclohexyl)piperazin-1-yl]phenyl}-N1,N1-dimethylbenzene-1,4-disulfonamide], for which the AC50 was at most 2 µM.

In turn, `CN(C)S(=O)(=O)c1ccc(S(=O)(=O)Nc2ccccc2N2CCN(C(=O)C3(C)CCC3)CC2)cc1` [Compound A-425, N1,N1-dimethyl-N4-{2-[4-(1-methylcyclobutanecarbonyl)piperazin-1-yl]phenyl}benzene-1,4-disulfonamide] came in with an AC50 of 2.01 to 8 µM.

`O=S(=O)(Nc1ccccc1N1CCN(c2ccc(F)cc2F)CC1)c1ccc(S(=O)(=O)C(F)(F)F)cc1` [Compound A-174, N-{2-[4-(2,4-difluorophenyl)piperazin-1-yl]phenyl}-4-trifluoromethanesulfonylbenzene-1-sulfonamide] gave an AC50 of 2.01 to 8 µM.

In the case of `CN(C)S(=O)(=O)c1ccc(S(=O)(=O)Nc2ccc(F)cc2N2CCC3(CC2)COC(C)(C)C3)cc1` [Compound A-606, N4-(2-{3,3-dimethyl-2-oxa-8-azaspiro[4.5]decan-8-yl}-4-fluorophenyl)-N1,N1-dimethylbenzene-1,4-disulfonamide], the AC50 fell in the range of 2.01 to 8 µM.

Take `CN(C)S(=O)(=O)c1ccc(S(=O)(=O)Nc2ccccc2N2CCN(C(=O)N3CC4CC3C4)CC2)cc1` [Compound A-447]: the AC50 lay in the range of 2.01 to 8 µM.

`COCC1(C)CCN(c2ccccc2NS(=O)(=O)c2cc(C3OCCO3)cs2)CC1` [Compound A-619, 4-(1,3-dioxolan-2-yl)-N-{2-[4-(methoxymethyl)-4-methylpiperidin-1-yl]phenyl}thiophene-2-sulfonamide] displayed a half-maximal activity concentration (AC50) of 2.01 to 8 µM.

The molecule `CN(C)S(=O)(=O)c1ccc(S(=O)(=O)Nc2ccccc2N2CCC3(CC2)OCc2cc(F)ccc23)cc1` [Compound A-258, N4-(2-{5-fluoro-3H-spiro[2-benzofuran-1,4′-piperidin]-1′-yl}phenyl)-N1,N1-dimethylbenzene-1,4-disulfonamide] came in with an AC50 of at most 2 µM.

In turn, `COCC1(C)CCN(c2ccccc2NS(=O)(=O)Cc2ccccc2F)CC1` [Compound A-579, 1-(2-fluorophenyl)-N-{2-[4-(methoxymethyl)-4-methylpiperidin-1-yl]phenyl}methanesulfonamide] had an AC50 of 2.01 to 8 µM.

`CN(C)S(=O)(=O)c1ccc(S(=O)(=O)Nc2ccccc2N2CCCC3(COC3)C2)cc1` [Compound A-507, N1,N1-dimethyl-N4-(2-{2-oxa-6-azaspiro[3.5]nonan-6-yl}phenyl)benzene-1,4-disulfonamide] registered an AC50 of 2.01 to 8 µM.

For `CN(C)S(=O)(=O)c1ccc(NC(c2ccccc2N2CCC(c3ccc(Cl)cc3F)CC2)C(F)(F)F)cc1` (stereo not shown) [Compound A-241, 4-((1-(2-(4-(4-chloro-2-fluorophenyl)piperidin-1-yl)phenyl)-2,2,2-trifluoroethyl)amino)-N,N-dimethylbenzenesulfonamide], the AC50 was at least 10 µM.

`CCC(C)c1ccc(S(=O)(=O)Nc2ccccc2N2CCN(C(=O)C(C)(C)C)CC2)cc1` (stereo not shown) [Compound A-513, 4-(butan-2-yl)-N-{2-[4-(2,2-dimethylpropanoyl)piperazin-1-yl]phenyl}benzene-1-sulfonamide] displayed an AC50 of 2.01 to 8 µM.

`CC(Nc1ccccc1N1CCC(c2ccc(Cl)cc2F)CC1)c1ccc(S(=O)(=O)N(C)C)cc1` (stereo not shown) [Compound A-443, 4-[1-({2-[4-(4-chloro-2-fluorophenyl)piperidin-1-yl]phenyl}amino)ethyl]-N,N-dimethylbenzene-1-sulfonamide] gave an AC50 of 2.01 to 8 µM.
